Values quoted from earlier work as cited in patent US20050147620A1, “Cinnamon formulation for reducing cholesterol and/or glucose levels” (priority 2004, published 2005).

Key:
[1] = ingestion of 20 to 30 g per day for several days

| Compound | increase in human skeletal muscle total creatine content [1] | pKa |
| --- | --- | --- |
| CN(CC(=O)O)C(=N)N.O [creatine monohydrate] | greater than 20% |  |
| O=C(O)CCCCC1CCSS1 (stereo not drawn) [lipoic acid, α-lipoic acid] |  | 4.7 |
